ChEMBL document CHEMBL4706663, “Large-scale isolation and antitumor mechanism evaluation of compounds from the traditional Chinese medicine Cordyceps Militaris” (Eur J Med Chem, 2021)
Activity calls are given as the source filed them. The rule behind the calls is not given here.

Columns and labels:
[1] = Antitumor activity against […] cells xenografted in KM mouse assessed as liver weight at 240 mg/kg, ig administered every day for 10 days measured post last dose (reference value: 1.57 +/- 0.3 g); assay type: functional; conditions: time 10 day
[2] = molecular target: Glyceraldehyde-3-phosphate dehydrogenase (Homo sapiens) (UniProt P04406); experiment: Binding affinity to GAPDH in human A549 cells by LC-MS/MS analysis; assay type: cell-based
Chain of Glyceraldehyde-3-phosphate dehydrogenase (Homo sapiens) (P04406 2-335 limits assumed): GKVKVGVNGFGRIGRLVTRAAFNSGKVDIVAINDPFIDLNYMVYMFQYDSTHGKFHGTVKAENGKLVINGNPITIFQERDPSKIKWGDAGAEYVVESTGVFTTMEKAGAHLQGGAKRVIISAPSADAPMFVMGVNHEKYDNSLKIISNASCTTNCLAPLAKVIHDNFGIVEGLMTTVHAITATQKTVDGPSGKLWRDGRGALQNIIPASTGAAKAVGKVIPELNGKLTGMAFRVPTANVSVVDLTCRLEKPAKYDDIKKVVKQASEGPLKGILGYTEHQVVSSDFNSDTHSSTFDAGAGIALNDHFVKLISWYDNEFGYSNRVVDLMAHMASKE

[3] = Antitumor activity against […] cells xenografted in KM mouse assessed as tumor weight at 27 mg/kg, ig administered every day for 10 days (reference value: 0.55 +/- 0.57 g); assay type: functional; conditions: time 10 day
[4] = Antitumor activity against […] cancer cells xenografted in BALB/c mouse assessed as tumor weight at 240 mg/kg, ig administered every day for 10 days (reference value: 1.68 +/- 0.78 g); assay type: functional, Lewis lung carcinoma; conditions: time 10 day
[5] = Toxicity in […] cells xenografted KM mouse assessed as net weight at 80 mg/kg, ig administered every day for 10 days (reference value: 9.45 +/- 4 g); assay type: organism-based; conditions: in vivo, po, 240 h, time 10 day
[6] = molecular target: Tropomyosin alpha-1 chain (Homo sapiens) (UniProt P09493); experiment: Binding affinity to tropomyosin alpha-1 chain isoform 1 in human A549 cells by LC-MS/MS analysis; assay type: cell-based
Chain of Tropomyosin alpha-1 chain (Homo sapiens) (P09493 whole entry, canonical isoform): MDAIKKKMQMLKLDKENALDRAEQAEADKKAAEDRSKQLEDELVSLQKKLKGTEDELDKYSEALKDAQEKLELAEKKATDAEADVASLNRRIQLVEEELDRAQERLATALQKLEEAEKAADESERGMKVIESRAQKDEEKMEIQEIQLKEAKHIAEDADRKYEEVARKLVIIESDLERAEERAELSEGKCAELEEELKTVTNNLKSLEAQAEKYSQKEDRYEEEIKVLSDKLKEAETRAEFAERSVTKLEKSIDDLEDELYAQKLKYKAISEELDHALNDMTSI

[7] = Toxicity in […] cells xenografted KM mouse assessed as survival rate at 27 mg/kg, ig administered every day for 10 days relative to control; assay type: organism-based; conditions: in vivo, po, time 10 day
HepG2 = experiment: Antiproliferative activity against human HepG2 cells assessed as inhibition of cell growth at 12.5 ug/ml measured after 48 hrs by real-time cell analysis relative to control; assay type: functional; conditions: read-out: GI
[8] = Antitumor activity against […] cells xenografted in KM mouse assessed as tumor growth inhibition at 27 mg/kg, ig administered every day for 10 days relative to control; assay type: functional; conditions: H22, po, 240 h, time 10 day, read-out: TGI
[9] = Toxicity in […] lung cancer cells xenografted BALB/c mouse assessed as survival rate at 80 mg/kg, ig administered every day for 10 days (reference value: 100%); assay type: organism-based; conditions: in vivo, po, time 10 day
[10] = Toxicity in […] lung cancer cells xenografted BALB/c mouse assessed as survival rate at 27 mg/kg, ig administered every day for 10 days (reference value: 100%); assay type: organism-based; conditions: in vivo, po, time 10 day
[11] = Antitumor activity against […] cells xenografted in KM mouse assessed as tumor weight at 80 mg/kg, ig administered every day for 10 days (reference value: 0.55 +/- 0.57 g); assay type: functional; conditions: time 10 day
A549 = experiment: Antiproliferative activity against human A549 cells assessed as inhibition of cell growth at 12.5 ug/ml measured after 48 hrs by real-time cell analysis relative to control; assay type: functional; conditions: read-out: GI
[12] = molecular target: Endoplasmic reticulum chaperone BiP (Homo sapiens) (UniProt P11021); experiment: Binding affinity to 78 kDa glucose-regulated protein in human A549 cells by LC-MS/MS analysis; assay type: cell-based
Chain of Endoplasmic reticulum chaperone BiP (Homo sapiens) (P11021 whole entry): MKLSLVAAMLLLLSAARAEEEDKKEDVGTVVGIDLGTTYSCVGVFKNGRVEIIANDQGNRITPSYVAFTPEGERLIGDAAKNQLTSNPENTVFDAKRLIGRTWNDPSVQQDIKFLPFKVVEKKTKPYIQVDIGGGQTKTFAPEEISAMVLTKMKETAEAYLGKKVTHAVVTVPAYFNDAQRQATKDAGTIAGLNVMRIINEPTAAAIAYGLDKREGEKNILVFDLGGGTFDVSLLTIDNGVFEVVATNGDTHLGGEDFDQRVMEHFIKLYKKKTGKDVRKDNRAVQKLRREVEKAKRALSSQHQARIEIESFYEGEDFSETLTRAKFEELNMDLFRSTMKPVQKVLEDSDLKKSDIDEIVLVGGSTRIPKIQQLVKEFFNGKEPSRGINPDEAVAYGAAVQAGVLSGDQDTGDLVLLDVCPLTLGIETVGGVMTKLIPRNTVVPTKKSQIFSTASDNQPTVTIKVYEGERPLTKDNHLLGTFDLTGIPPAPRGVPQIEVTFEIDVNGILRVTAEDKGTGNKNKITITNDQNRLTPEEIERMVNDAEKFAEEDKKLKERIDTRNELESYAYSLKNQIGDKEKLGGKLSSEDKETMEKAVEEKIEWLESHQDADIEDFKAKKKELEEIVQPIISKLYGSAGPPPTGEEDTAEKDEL

[13] = Toxicity in […] lung cancer cells xenografted BALB/c mouse assessed as net weight at 27 mg/kg, ig administered every day for 10 days (reference value: 1.16 +/- 1.55 g); assay type: organism-based; conditions: in vivo, po, 240 h, time 10 day
[14] = Toxicity in […] lung cancer cells xenografted BALB/c mouse assessed as net weight at 240 mg/kg, ig administered every day for 10 days (reference value: 1.16 +/- 1.55 g); assay type: organism-based; conditions: in vivo, po, 240 h, time 10 day
[15] = Toxicity in […] cells xenografted KM mouse assessed as net weight at 27 mg/kg, ig administered every day for 10 days (reference value: 9.45 +/- 4 g); assay type: organism-based; conditions: in vivo, po, 240 h, time 10 day
[16] = Toxicity in […] cells xenografted KM mouse assessed as survival rate at 80 mg/kg, ig administered every day for 10 days relative to control; assay type: organism-based; conditions: in vivo, po, time 10 day
[17] = Antitumor activity against […] cells xenografted in KM mouse assessed as liver weight at 80 mg/kg, ig administered every day for 10 days measured post last dose (reference value: 1.57 +/- 0.3 g); assay type: functional; conditions: time 10 day
[18] = Antitumor activity against […] cancer cells xenografted in BALB/c mouse assessed as lung weight at 27 mg/kg, ig administered every day for 10 days measured post last dose (reference value: 0.13 +/- 0.03 g); assay type: functional, Lewis lung carcinoma; conditions: time 10 day
[19] = Toxicity in […] lung cancer cells xenografted BALB/c mouse assessed as net weight at 80 mg/kg, ig administered every day for 10 days (reference value: 1.16 +/- 1.55 g); assay type: organism-based; conditions: in vivo, po, 240 h, time 10 day
[20] = molecular target: Tropomyosin alpha-4 chain (Homo sapiens) (UniProt P67936); experiment: Binding affinity to tropomyosin alpha-4 chain isoform 1 in human A549 cells by LC-MS/MS analysis; assay type: cell-based
Chain of Tropomyosin alpha-4 chain (Homo sapiens) (P67936 whole entry, canonical isoform): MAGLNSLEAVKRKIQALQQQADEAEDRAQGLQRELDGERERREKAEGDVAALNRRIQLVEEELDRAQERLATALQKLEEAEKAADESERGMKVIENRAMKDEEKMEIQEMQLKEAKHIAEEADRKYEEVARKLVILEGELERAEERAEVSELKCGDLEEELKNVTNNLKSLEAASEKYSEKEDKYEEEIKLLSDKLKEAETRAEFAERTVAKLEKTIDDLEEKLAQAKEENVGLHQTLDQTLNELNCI

[21] = Antitumor activity against […] cancer cells xenografted in BALB/c mouse assessed as tumor growth inhibition at 240 mg/kg, ig administered every day for 10 days relative to control; assay type: functional; conditions: Lewis lung carcinoma, po, 240 h, time 10 day, read-out: TGI
[22] = molecular target: Heat shock cognate 71 kDa protein (Homo sapiens) (UniProt P11142); experiment: Binding affinity to heat shock cognate 71 kDa protein isoform 1 in human A549 cells by LC-MS/MS analysis; assay type: cell-based
Chain of Heat shock cognate 71 kDa protein (Homo sapiens) (P11142 2-646 limits assumed): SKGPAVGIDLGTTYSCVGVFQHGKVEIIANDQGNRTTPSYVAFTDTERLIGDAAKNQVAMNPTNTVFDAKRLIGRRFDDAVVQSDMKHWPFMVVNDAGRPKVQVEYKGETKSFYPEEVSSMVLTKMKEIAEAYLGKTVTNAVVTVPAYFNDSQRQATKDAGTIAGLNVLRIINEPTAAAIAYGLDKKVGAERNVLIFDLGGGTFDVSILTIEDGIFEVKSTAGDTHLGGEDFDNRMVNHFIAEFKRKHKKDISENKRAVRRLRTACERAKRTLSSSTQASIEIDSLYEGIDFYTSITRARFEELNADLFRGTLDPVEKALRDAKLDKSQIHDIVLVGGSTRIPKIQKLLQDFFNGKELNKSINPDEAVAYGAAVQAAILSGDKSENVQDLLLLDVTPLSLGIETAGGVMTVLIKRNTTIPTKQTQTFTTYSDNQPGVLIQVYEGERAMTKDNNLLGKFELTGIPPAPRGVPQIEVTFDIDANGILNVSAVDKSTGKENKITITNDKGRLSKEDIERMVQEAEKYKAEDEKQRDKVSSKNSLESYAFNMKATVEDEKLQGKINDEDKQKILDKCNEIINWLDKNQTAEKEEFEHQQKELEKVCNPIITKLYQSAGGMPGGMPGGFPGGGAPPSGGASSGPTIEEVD

[23] = Toxicity in […] cells xenografted KM mouse assessed as survival rate at 240 mg/kg, ig administered every day for 10 days relative to control; assay type: organism-based; conditions: in vivo, po, time 10 day
[24] = molecular target: Heat shock 70 kDa protein 1A/1B (Homo sapiens) (UniProt P0DMV8+P0DMV9); experiment: Binding affinity to heat shock 70 kDa protein 1A/1B in human A549 cells by LC-MS/MS analysis; assay type: cell-based
Chain of Heat shock 70 kDa protein 1A/1B (Homo sapiens) (P0DMV8 whole entry, looked up): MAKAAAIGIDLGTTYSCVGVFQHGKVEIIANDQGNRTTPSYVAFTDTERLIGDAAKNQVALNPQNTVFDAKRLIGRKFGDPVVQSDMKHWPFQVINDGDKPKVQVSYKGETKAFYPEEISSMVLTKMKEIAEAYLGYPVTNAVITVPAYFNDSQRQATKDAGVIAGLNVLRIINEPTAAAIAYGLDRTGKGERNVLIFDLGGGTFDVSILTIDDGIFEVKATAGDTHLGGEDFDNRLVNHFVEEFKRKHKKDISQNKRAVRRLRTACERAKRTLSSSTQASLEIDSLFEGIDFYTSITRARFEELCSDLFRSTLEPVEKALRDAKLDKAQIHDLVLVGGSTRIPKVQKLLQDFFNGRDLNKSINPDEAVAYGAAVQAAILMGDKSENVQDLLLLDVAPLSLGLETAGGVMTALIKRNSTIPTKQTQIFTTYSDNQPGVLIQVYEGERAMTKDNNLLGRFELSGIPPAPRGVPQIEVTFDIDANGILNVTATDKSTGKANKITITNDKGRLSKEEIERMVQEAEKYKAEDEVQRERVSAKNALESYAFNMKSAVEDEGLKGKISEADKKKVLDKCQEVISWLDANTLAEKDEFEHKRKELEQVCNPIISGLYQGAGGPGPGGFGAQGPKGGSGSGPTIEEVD
Chain of Heat shock 70 kDa protein 1A/1B (Homo sapiens) (P0DMV9 whole entry, looked up): as the sequence (P0DMV8 whole entry, looked up) above

[25] = Antitumor activity against […] cells xenografted in KM mouse assessed as tumor weight at 240 mg/kg, ig administered every day for 10 days (reference value: 0.55 +/- 0.57 g); assay type: functional; conditions: time 10 day
[26] = Antitumor activity against […] cancer cells xenografted in BALB/c mouse assessed as lung weight at 80 mg/kg, ig administered every day for 10 days measured post last dose (reference value: 0.13 +/- 0.03 g); assay type: functional, Lewis lung carcinoma; conditions: time 10 day
[27] = Antitumor activity against […] cancer cells xenografted in BALB/c mouse assessed as tumor growth inhibition at 80 mg/kg, ig administered every day for 10 days relative to control; assay type: functional; conditions: Lewis lung carcinoma, po, 240 h, time 10 day, read-out: TGI
[28] = molecular target: T1, Delta(3,5)-Delta(2,4)-dienoyl-CoA isomerase, mitochondrial (Homo sapiens) (UniProt Q13011); experiment: Binding affinity to delta(3,5)-delta(2,4)-dienoyl-CoA isomerase, mitochondrial in human A549 cells by LC-MS/MS analysis; assay type: cell-based
T1 sequence (whole entry): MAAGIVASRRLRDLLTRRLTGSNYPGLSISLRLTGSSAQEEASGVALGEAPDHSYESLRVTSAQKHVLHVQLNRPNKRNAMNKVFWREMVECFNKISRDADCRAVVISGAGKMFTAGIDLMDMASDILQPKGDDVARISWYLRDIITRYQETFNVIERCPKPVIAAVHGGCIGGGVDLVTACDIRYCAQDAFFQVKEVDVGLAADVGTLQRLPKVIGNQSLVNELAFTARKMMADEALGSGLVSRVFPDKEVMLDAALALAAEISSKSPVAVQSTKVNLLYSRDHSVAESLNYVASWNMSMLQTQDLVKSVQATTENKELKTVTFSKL

For `CC(C)[C@@H](C)/C=C/[C@@H](C)[C@H]1CC[C@H]2C3=CC=C4C[C@@H](O)CC[C@]4(C)[C@H]3CC[C@]12C` [ERGOSTEROL], the Activity [1] was 1.57 g, the Activity [2] was “Active” and the Activity [3] was 0.42 g. For the same molecule, the Activity [4] was 0.93 g, the Activity [5] was 7.78 g and the Activity [6] was “Active”. It also gave a survival at 240 h [7] of 100%, an inhibition of growth at 12.5 µg/mL (HepG2) of 100% and an inhibition in vivo at 27 mg/kg [8] of 23.4%. The survival at 240 h [9] was 100%, the survival at 240 h [10] was 100% and the Activity [11] was 0.32 g. The inhibition of growth at 12.5 µg/mL (A549) was 100%, the Activity [12] was “Active” and the Activity [13] was -0.36 g. The Activity [14] was -0.61 g, the Activity [15] was 6.92 g and the survival at 240 h [16] was 100%. The Activity [17] was 1.87 g, the Activity [18] was 0.12 g and the Activity [19] was -0.95 g. For the same molecule, the Activity [20] was “Active”, the inhibition in vivo at 240 mg/kg [21] was 44.6% and the Activity [22] was “Active”. The survival at 240 h [23] was 100%, the Activity [24] was “Active” and the Activity [25] was 0.19 g. The Activity [26] was 0.12 g, the inhibition in vivo at 80 mg/kg [27] was 28.4% and the Activity [28] was “Active”.
